Source: ChEMBL document CHEMBL4130359, “Indazole-based ligands for estrogen-related receptor α as potential anti-diabetic agents” (Eur J Med Chem, 2017)
Calls of active or inactive are those of the source. The rule behind the calls is not given here.

How the values were obtained:
[1] = AUC (0 to 24 hrs) in […] model at 10 mg/kg, po qd for 28 days measured on day 28 post last dose; format: ADME, organism-based; set-up: time < 24 hr, dose 10 mg/kg, route oral; conditions: in vivo
[2] = tested on: Rattus norvegicus; assay: Increase in ERRalpha mRNA expression in epididymal white adipose tissue of Zucker rat sub-chronic fa/fa prediabetic model at 10 mg/kg, po qd for 15 days by RT-PCR method; format: functional, organism-based
[3] = molecular target: Oxysterols receptor LXR-alpha (Homo sapiens, UniProt Q13133); assay: Agonist activity at recombinant GST-tagged human LXRalpha LBD assessed as fluorescein-labeled coactivator peptide recruitment preincubated with enzyme followed by coactivator addition by LanthaScreen TR-FRET assay
Sequence of Oxysterols receptor LXR-alpha (Q13133 whole entry, the tested form may be a part): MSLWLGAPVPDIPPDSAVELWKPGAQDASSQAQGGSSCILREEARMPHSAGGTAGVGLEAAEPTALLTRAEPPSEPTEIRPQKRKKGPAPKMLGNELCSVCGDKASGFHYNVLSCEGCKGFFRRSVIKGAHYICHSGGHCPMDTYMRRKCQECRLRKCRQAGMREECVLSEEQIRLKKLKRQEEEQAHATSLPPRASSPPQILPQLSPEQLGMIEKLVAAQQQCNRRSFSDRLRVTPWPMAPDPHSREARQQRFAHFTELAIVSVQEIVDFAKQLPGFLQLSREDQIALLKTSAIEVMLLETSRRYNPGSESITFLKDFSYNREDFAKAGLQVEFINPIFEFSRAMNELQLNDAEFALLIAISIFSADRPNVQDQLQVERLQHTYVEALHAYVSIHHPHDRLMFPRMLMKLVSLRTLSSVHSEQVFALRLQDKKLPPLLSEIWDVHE

[4] = tested on: Rattus norvegicus; assay: Effect on SYNJ2 gene expression in epididymal white adipose tissue of Zucker rat sub-chronic fa/fa prediabetic model at 10 mg/kg, po qd for 15 days by microarray analysis relative to control; format: functional
[5] = organism: Cavia porcellus; assay: Inhibition of veratridine binding to Dunkin Hartley guinea pig atria sodium channel site 2 (unknown origin) at 10 uM relative to control
[6] = AUC (0 to 24 hrs) in Sprague-Dawley rat at 10 mg/kg administered via oral gavage by LC-MS analysis; format: ADME, organism-based; set-up: dose 10 mg/kg, time < 24 hr, route oral; conditions: in vivo
[7] = AUC (0 to 24 hrs) in […] at 15 mg/kg administered via oral gavage by LC-MS analysis; format: ADME, organism-based; set-up: dose 15 mg/kg, time < 24 hr, route oral; conditions: in vivo
[8] = tested on: Rattus norvegicus; assay: Effect on ACSS1 gene expression in epididymal white adipose tissue of Zucker rat sub-chronic fa/fa prediabetic model at 10 mg/kg, po qd for 15 days by microarray analysis relative to control; format: functional
[9] = tested on: Rattus norvegicus; assay: Toxicity in Zucker rat sub-chronic fa/fa prediabetic model assessed as serum cholesterol level at 3 mg/kg, po qd for 31 days measured on day 32 (reference value: 295 +/- 91 mg/dl); format: organism-based; conditions: in vivo, 744 h
[10] = tested on: Rattus norvegicus; assay: Toxicity in Zucker rat sub-chronic fa/fa prediabetic model assessed as serum ALT level at 1 mg/kg, po qd for 31 days measured on day 32 (reference value: 151 +/- 23 U/L); format: organism-based; conditions: in vivo, 744 h
[11] = AUC (0 to 24 hrs) in CD-1 mouse at 20 mg/kg administered via oral gavage by LC-MS analysis; format: ADME, organism-based; set-up: dose 20 mg/kg, time < 24 hr, route oral; conditions: in vivo
[12] = tested on: Rattus norvegicus; assay: Toxicity in Zucker rat sub-chronic fa/fa prediabetic model assessed as serum BUN level at 10 mg/kg, po qd for 31 days measured on day 32 (reference value: 28.3 +/- […]); format: organism-based; conditions: in vivo, 744 h
[13] = tested on: Rattus norvegicus; assay: Effect on NDUFV3 gene expression in epididymal white adipose tissue of Zucker rat sub-chronic fa/fa prediabetic model at 10 mg/kg, po qd for 15 days by microarray analysis relative to control; format: functional
[14] = tested on: Rattus norvegicus; assay: Toxicity in […] chronic ob/ob model assessed as body weight at 10 mg/kg, po qd for 28 days measured on day 28 post last dose (reference value: 47.3 +/- 1.06 g); format: organism-based; conditions: in vivo, 672 h
[15] = tested on: Rattus norvegicus; assay: Toxicity in Zucker rat sub-chronic fa/fa prediabetic model assessed as body weight at 1 mg/kg, po qd for 29 days measured on day 29 post last dose (reference value: 533 +/- 10 g); format: organism-based; conditions: in vivo, 696 h
[16] = tested on: Rattus norvegicus; assay: Increase in ADIPOQ mRNA expression in epididymal white adipose tissue of Zucker rat sub-chronic fa/fa prediabetic model at 10 mg/kg, po qd for 15 days by RT-PCR method; format: functional, organism-based
[17] = tested on: Rattus norvegicus; assay: Effect on THEM4 gene expression in epididymal white adipose tissue of Zucker rat sub-chronic fa/fa prediabetic model at 10 mg/kg, po qd for 15 days by microarray analysis relative to control; format: functional
[18] = Volume of distribution at steady state in Sprague-Dawley rat at 2 mg/kg, iv by LC-MS analysis; format: ADME, organism-based; conditions: in vivo, read-out: Vdss
[19] = tested on: Rattus norvegicus; assay: Toxicity in […] chronic ob/ob model assessed as change in body weight at 50 mg/kg, po qd for 28 days measured on day 1 to 28 during compound dosing (reference value: 9.9 +/- 1.27 g); format: organism-based; conditions: in vivo, 672 h
[20] = tested on: Rattus norvegicus; assay: Effect on PGAM2 gene expression in epididymal white adipose tissue of Zucker rat sub-chronic fa/fa prediabetic model at 10 mg/kg, po qd for 15 days by microarray analysis relative to control; format: functional
[21] = tested on: Rattus norvegicus; assay: Toxicity in Zucker rat sub-chronic fa/fa prediabetic model assessed as serum cholesterol level at 10 mg/kg, po qd for 31 days measured on day 32 (reference value: 295 +/- 91 mg/dl); format: organism-based; conditions: in vivo, 744 h
[22] = tested on: Rattus norvegicus; assay: Effect on UGP2 gene expression in epididymal white adipose tissue of Zucker rat sub-chronic fa/fa prediabetic model at 10 mg/kg, po qd for 15 days by microarray analysis relative to control; format: functional
[23] = tested on: Rattus norvegicus; assay: Decrease in fed plasma insulin level in Zucker rat sub-chronic fa/fa prediabetic model assessed as change in plasma insulin level at 10 mg/kg, po qd for 4 days measured on day 5 relative to control; format: functional; set-up: scale not given: the % may be the effect or the level left
[24] = tested on: Rattus norvegicus; assay: Antidiabetic activity in Zucker rat sub-chronic fa/fa prediabetic model assessed as blood glucose AUC (0 to 120 min) at 3 mg/kg, po qd for 31 days measured on day 29 post dose by OGTT (reference value: 41471 +/- 2451 mg.min/dL); format: functional
[25] = tested on: Rattus norvegicus; assay: Antidiabetic activity in Zucker rat sub-chronic fa/fa prediabetic model assessed as increase in serum adiponectin level at 50 mg/kg, po qd for 4 days by ELISA relative to control; format: functional
[26] = Tmax in […] at 15 mg/kg administered via oral gavage by LC-MS analysis; format: ADME, organism-based; conditions: in vivo
[27] = Terminal half life in Sprague-Dawley rat at 10 mg/kg administered via oral gavage by LC-MS analysis; format: ADME, organism-based; conditions: in vivo, read-out: beta t1/2 (converted)
[28] = Cmax in […] at 15 mg/kg administered via oral gavage by LC-MS analysis; format: ADME, organism-based; set-up: dose 15 mg/kg, route oral; conditions: in vivo
[29] = tested on: Rattus norvegicus; assay: Antidiabetic activity in […] chronic ob/ob model assessed as increase in plasma adiponectin level at 3 mg/kg, po qd for 31 days measured on day 32 by ELISA relative to control; format: functional
[30] = tested on: Rattus norvegicus; assay: Toxicity in Zucker rat sub-chronic fa/fa prediabetic model assessed as change in body weight at 50 mg/kg, po qd for 29 days measured on day 1 to 29 during compound dosing (reference value: 140 +/- 7 g); format: organism-based; conditions: in vivo, 696 h
[31] = tested on: Rattus norvegicus; assay: Effect on STAT3 gene expression in epididymal white adipose tissue of Zucker rat sub-chronic fa/fa prediabetic model at 10 mg/kg, po qd for 15 days by microarray analysis relative to control; format: functional
[32] = AUC (0 to 24 hrs) in Zucker rat sub-chronic fa/fa prediabetic model at 10 mg/kg, po qd for 26 days measured on day 26 post last dose; format: ADME, organism-based; set-up: dose 10 mg/kg, time < 24 hr, route oral; conditions: in vivo
[33] = Drug uptake in heart of Zucker rat sub-chronic fa/fa prediabetic model at 12.5 mg/kg, po qd for 11 days; format: ADME, organism-based; conditions: read-out: Drug uptake
[34] = tested on: Rattus norvegicus; assay: Toxicity in […] chronic ob/ob model assessed as body weight at 3 mg/kg, po qd for 28 days measured on day 28 post last dose (reference value: 47.3 +/- 1.06 g); format: organism-based; conditions: in vivo, 672 h

In the case of `CN1CC[C@@H](N2C(=O)S/C(=C\c3ccc4c(cnn4Cc4ccc(Cl)cc4C(F)(F)F)c3)C2=O)[C@H](F)C1`, the AUC at 24 h [1] is reported as 5910 ng·h/mL, the Activity [2] is reported as “Active” and the EC50 [3] is reported as > 10 µM. The “fold change (FC)” value [4] was -1.663, the inhibition [5] was 69% and the AUC(0-t) at 24 h [6] was 5410 ng·h/mL. For the same molecule, the AUC(0-t) at 24 h [7] was 34500 ng·h/mL, the “fold change (FC)” value [8] was -1.893 and the Activity [9] was 179 mg/dL. For the same molecule, the Activity [10] was 159 U/L, the AUC(0-t) at 24 h [11] was 14600 ng·h/mL and the Activity [12] was 26.9 mg/dL. The “fold change (FC)” value [13] was 1.257, the Activity [14] was 46.2 g and the Activity [15] was 525 g. For the same molecule, the Activity [16] was “Active”, the “fold change (FC)” value [17] was 1.465 and the Vd [18] was 11.2 L/kg. For the same molecule, the Activity [19] was 9.4 g, the “fold change (FC)” value [20] was 1.396 and the Activity [21] was 197 mg/dL. The “fold change (FC)” value [22] was 1.803, the Activity [23] was -67% and the Activity [24] was 26306 mg·min/dL. For the same molecule, the “fold change (FC)” value [25] was 1.9, the Tmax [26] was 2.5 h and the half-life [27] was 4.7 h. The Cmax [28] was 4020 ng/mL, the “fold change (FC)” value [29] was 1.4 and the Activity [30] was 157 g. The “fold change (FC)” value [31] was -1.405, the AUC at 24 h [32] was 23900 ng·h/mL and the concentration at 264 h [33] was 1700 ng/g. It also gave an Activity [34] of 43.5 g.
